Entries after “also recorded” stand apart in the source; their conditions may differ.

Data set [1] has as its system C. neoformans strain H99. The data set can be described thus: Murine cryptococcal infection, spleen fungal burden (Example 3). The following applies: 14 days; fluconazole 6 mg/kg, JH-FK-08 40 mg/kg, i.p. twice per day. Type of data set: in vivo, Cryptococcus neoformans in A/J mice. On the procedure: In vivo antifungal activity and therapeutic benefit were assayed by investigating the impact of the FK520 analog on organ fungal burden during cryptococcosis. Specifically, the in vivo efficacy of JH-FK-08 on fungal burden was assessed using A/J female mice. Immunodeficient A/J mice were selected in part due to their defect in complement component five and their susceptibility to cryptococcal infection. Treatment groups included vehicle of 10% Kolliphor: ethanol (1:1) in phosphate-buffered saline (PBS), 6 mg/kg fluconazole, 40 mg/kg JH-FK-08, or the fluconazole and JH-FK-08 combination, all given via intraperitoneal (i.p.) injection twice per day beginning at 4 hours post infection. […] Mice were intranasally infected with C. neoformans strain H99, and fungal burden in the lung, spleen, and brain was assessed after 14 days of treatment.
C. neoformans inoculum was prepared by growing a 5-mL overnight YPD culture spinning in a tissue culture roller drum at 30° C. Cells were pelleted by centrifugation and washed in sterile PBS three times. Cell density was determined by hemocytometer, and cells were diluted to 2×10^6 cells/mL. Mice (10 to 20 g) were infected with 10^5 cells of C. neoformans H99. […] Following inhalation of the inoculum, animals were monitored for post anesthesia recovery. […] Fungal burden was assessed 24 h after the final dose. […]

Data set [2] concerns C. neoformans strain H99. Put plainly: Survival during cryptococcal infection (Example 3). Type of data set: in vivo, Cryptococcus neoformans in A/J mice. As to the method: Finally, whether the antifungal efficacy translates into extended survival during infection was assessed. To test the impact of treatment on survival, murine survival was monitored in the cryptococcosis infection model. Following the same protocol of infection and dosing as in the fungal burden experiment, animal survival was monitored following infection and 2 weeks of intraperitoneal dosing. Fluconazole treatment extended median survival from 16 to 27 days.
C. neoformans inoculum was prepared by growing a 5-mL overnight YPD culture spinning in a tissue culture roller drum at 30° C. Cells were pelleted by centrifugation and washed in sterile PBS three times. Cell density was determined by hemocytometer, and cells were diluted to 2×10^6 cells/mL. Mice (10 to 20 g) were infected with 10^5 cells of C. neoformans H99. For inhalation infection, animals were anesthetized with isoflurane before 50 μL of inoculum was pipetted onto the upright nasal passages of each animal. Following inhalation of the inoculum, animals were monitored for post anesthesia recovery. Treatment of animals began 4 hours post infection and was continued for 14 days. Fungal burden was assessed 24 h after the final dose.
For survival curve analysis, animals were monitored until reaching defined humane end points, including social isolation, hunched posture, weight loss, lack of grooming, and labored breathing, and were then euthanized via CO2 inhalation. For fungal burden analysis, mice were euthanized following 2 weeks of treatment with a designated antifungal, vehicle, or combination. Brain, lung, and spleen were harvested from animals, weighed, and homogenized in sterile PBS using steel beads and a bead beater. Each organ homogenate was serially diluted 10-fold to 10-4 in PBS. One hundred microliters of each dilution was plated on YPD plates supplemented with YPD 50 μg/mL ampicillin and 30 μg/mL chloramphenicol, incubated at 30° C. for 2 days, and assessed for colony-forming units. CFU per organ weight was calculated and plotted using GraphPad Prism 9.

The subject of data set [3] is Aspergillus fumigatus (akuBKu80 hFKBP12). Put plainly: MIC/MEC against humanized A. fumigatus strain. Type of data set: cell-based. On the procedure: To confirm that JH-FK-05 was fungal FKBP12-dependent, a humanized A. fumigatus strain (the akuB^Ku80 hFKBP12 strain) expressing a codon-optimized human FKBP12 gene from the Affkbp12 native locus was utilized.
In vitro antifungal activities of FK506, FK520, and analogs were assessed in RPMI 1640 (Sigma-Aldrich) for all strains tested. MICs/minimum effective concentrations (MECs) for each drug were measured using modified Clinical and Laboratory Standards Institute (CLSI) M38-A2 and M27-A3 standard in vitro antifungal susceptibility protocols. Broth microdilution assays for MIC/MEC assessment were performed as described previously (see, Juvvadi P R, et al., 2019, Nat Commun 10:4275). All antifungal assays with C. neoformans were performed at 37° C. Antifungal susceptibility testing for C. albicans was performed in the presence of a uniform 1 μg/mL concentration of fluconazole to sensitize the organism to calcineurin inhibition.

The test system of data set [4] is C. neoformans H99. The data set can be described thus: Intravenous model of disseminated cryptococcosis, brain fungal burden (Example 1). The class given is in vivo, Cryptococcus neoformans in mice. From the text:
The high in vitro antifungal activity of JH-FK-05 presented promising evidence that it might effectively reduce fungal burden in the context of murine infection. Two models of C. neoformans infection were employed to test this hypothesis (FIG. 7A). First, in the intranasal model, animals were anesthetized and infected with 10^5 cells of wild-type H99 C. neoformans via instillation in the animal's nares. These animals were monitored for 14 days and then sacrificed. This model tests the efficacy of JH-FK-05 to treat a pulmonary infection, which is the most common manifestation of early-stage cryptococcosis in patients. Second, the intravenous (i.v.) model approximates the disseminated stage of disease. […]
Wild-type H99 C. neoformans cells were grown overnight at 30° C. in a roller drum in yeast extract-peptone-dextrose (YPD) medium. […] H99 cells were counted with a hemacytometer and diluted to 2×10^6 cells/mL in PBS for the pulmonary model and 2×10^5 cells/mL in PBS for the disseminated model. […]
Mice were euthanized by CO2 inhalation at the predetermined experimental endpoint. […] A 100-μL aliquot of each dilution was plated on antibiotic plates (YPD, 50 μg/mL ampicillin, and 30 µg/mL chloramphenicol), incubated for 48 to 72 h at 30° C., and assessed for CFU. […] Statistical significance was calculated using an ordinary one-way analysis of variance (ANOVA) with Tukey's multiple-comparison test.

For `CC[C@@H]1/C=C(\C)C[C@H](C)C[C@H](OC)[C@H]2O[C@@](O)(C(=O)C(=O)N3CCCC[C@H]3C(=O)O[C@H](/C(C)=C/C3CC[C@@H](O)[C@H](OC)C3)[C@H](C)[C@@H](O)C/C1=N/NC(=O)OC)[C@H](C)C[C@@H]2OC` (some centres unmarked) [JH-FK-08], the “spleen fungal burden” value in data set [1] is “no detectable fungal burden”. The “survival compared to vehicle/untreated” value in data set [2] (2 weeks twice daily i.p. 40 mg/kg, 40 mg/kg) is “more than doubled median survival; also recorded: more than double murine survival time”. Moreover, the median survival in data set [2] (2 weeks twice daily i.p., fluconazole 6 mg/kg, JH-FK-08 40 mg/kg, vehicle 16 days) is 33 days. Besides, the “combination effect with fluconazole” value in data set [2] (in vivo) is “additive activity in combination with fluconazole in vivo”.
As to `CC[C@@H]1/C=C(\C)C[C@H](C)C[C@H](OC)[C@H]2O[C@@](O)(C(=O)C(=O)N3CCCC[C@H]3C(=O)O[C@H](/C(C)=C/[C@@H]3CC[C@@H](O)[C@H](OC)C3)[C@H](C)[C@@H](O)C/C1=N/NC(C)=O)[C@H](C)C[C@@H]2OC` [JH-FK-05], the “antifungal activity against hFKBP12-expressing A. fumigatus strain” value in data set [3] was “no detectable antifungal activity”. Further, in data set [3] (strain akuBKu80 hFKBP12), the MIC/MEC is more than 8 µg/mL. Besides, the “reduction of brain fungal burden” value in data set [4] (day 7, JH-FK-05 60 mg/kg, fluconazole 12 mg/kg, i.p. daily) is recorded as 2 fold. Besides, in data set [4] (inferred from brain fungal burden), the “blood-brain barrier crossing” value is “can cross the blood-brain barrier”.

The values are drawn from patent US20260315446A1, “ANTIFUNGAL COMPOUNDS AND USES THEREOF” (priority 2023, published 2026).
